Test results as given in PubChem BioAssay (NCI).
Where “and” joins values, the source holds several entries; their conditions need not be identical. Equal entries are not always repeated.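 48-hour exposure; five concentrations; linearly interpolated endpoints. Abbreviation: GI50, concentration required for 50% inhibition of growth. Definition used: TGI = concentration required for complete inhibition of growth.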

Tests used:
Assay in all cases: inhibition of tumour cell growth, NCI panel, 48 h
[1] = system: MDA-MB-435
[2] = system: NCI/ADR-RES ovarian
[3] = system: A498 renal
[4] = system: NCI-H226 lung
[5] = system: IGROV1 ovarian
[6] = system: EKVX NSCLC
[7] = system: MCF7 breast
[8] = system: OVCAR-4 ovarian
[9] = system: COLO 205 colon
[10] = system: MALME-3M melanoma
[11] = system: SK-OV-3 ovarian
[12] = system: HCT-116 colon
[13] = system: HCC-2998 colon
[14] = system: NCI-H460 lung
[15] = system: BT-549 breast
[16] = system: T-47D breast
[17] = system: NCI-H522 lung
[18] = system: DU-145 prostate
[19] = system: RXF 393 renal
[20] = system: UACC-257 melanoma
[21] = system: SK-MEL-2 melanoma
[22] = system: SNB-19 CNS
[23] = system: CCRF-CEM leukemia
[24] = system: HL-60(TB) leukemia
[25] = system: ACHN renal
[26] = system: MDA-N
[27] = system: UACC-62 melanoma
[28] = system: HS 578T breast
[29] = system: SF-295 CNS
[30] = system: HT29 colon
[31] = system: OVCAR-3 ovarian
[32] = system: KM12 colon
[33] = system: SK-MEL-5 melanoma
[34] = system: UO-31 renal
[35] = system: SNB-75 CNS
[36] = system: HOP-92 NSCLC
[37] = system: SF-539 CNS
[38] = system: LOX IMVI melanoma
[39] = system: HCT-15 colon
[40] = system: SN12C renal
[41] = system: U251 CNS
[42] = system: SF-268 CNS
[43] = system: NCI-H23 lung
[44] = system: SR leukemia
[45] = system: OVCAR-8 ovarian
[46] = system: TK-10 renal
[47] = system: MOLT-4 leukemia
[48] = system: OVCAR-5 ovarian
[49] = system: M14 melanoma
[50] = system: K-562 leukemia
[51] = system: SK-MEL-28 melanoma
[52] = system: SW-620 colon
[53] = system: PC-3 prostate
[54] = system: CAKI-1 renal
[55] = system: 786-0 renal
[56] = system: HOP-62 NSCLC
[57] = system: A549 NSCLC
[58] = system: RPMI-8226 leukemia
[59] = system: MDA-MB-231 breast

CC(C)=CCc1c2c(c(O)c3c(=O)c4c(oc13)-c1ccc(O)cc1OC4C=C(C)C)C=CC(C)(C)O2 (centres undefined)
TGI [1]: 23.3 µM
TGI [2]: 34.6 µM
TGI [3]: 34.9 µM
TGI [4]: 40.6 µM
TGI [5]: 27.8 µM
TGI [6]: 30.3 µM
TGI [7]: 28.9 µM
TGI [8]: 24.8 µM
TGI [9]: 37.1 µM
TGI [10]: 34.3 µM
TGI [11]: 33.3 µM
TGI [12]: 21 µM
TGI [13]: 11 µM
TGI [14]: 30.4 µM
TGI [15]: 28.1 µM
TGI [16]: 23 µM
TGI [17]: 26.9 µM
TGI [18]: 27.5 µM
TGI [19]: 20.1 µM
TGI [20]: 29.4 µM
TGI [21]: 26.1 µM
TGI [22]: 30.2 µM
TGI [23]: 15.5 µM
TGI [24]: 31.7 µM
TGI [25]: 24.7 µM
TGI [26]: 27.1 µM
TGI [27]: 27.4 µM
TGI [28]: 17.2 µM
TGI [29]: 28.6 µM
TGI [30]: 28.9 µM
TGI [31]: 25.2 µM
TGI [32]: 21.7 µM
TGI [33]: 28.2 µM
TGI [34]: 33.7 µM
TGI [35]: 25.3 µM
TGI [36]: 20.8 µM
TGI [37]: 32.8 µM
TGI [38]: 23.8 µM
TGI [39]: 24.8 µM
TGI [40]: 17 µM
TGI [41]: 25.3 µM
TGI [42]: 29.8 µM
TGI [43]: 20.3 µM
TGI [44]: 16 µM
TGI [45]: 28.8 µM
TGI [46]: 28.5 µM
TGI [47]: 22.7 µM
TGI [48]: 35.9 µM
TGI [49]: 35.4 µM
TGI [50]: 25.9 µM
TGI [51]: 29.2 µM
TGI [52]: 23.5 µM
TGI [53]: 24.7 µM
TGI [54]: 34.4 µM
TGI [55]: 23.9 µM
TGI [56]: 28.4 µM
TGI [57]: 24.6 µM
TGI [58]: 14.9 µM
TGI [59]: 28 µM

Cc1nc2c(Br)cc(Br)cc2c(=O)n1-c1ccccc1NC1OCC(O)C(O)C1O (centres undefined)
TGI [1]: > 100 µM
GI50 [2]: 43.3 µM and > 100 µM
TGI [2]: > 100 µM
GI50 [3]: 87.2 µM and 18.3 µM
TGI [3]: > 100 µM and 45.6 µM
GI50 [4]: 42.3 µM and 16.2 µM
TGI [4]: > 100 µM and 48.9 µM
TGI [5]: > 100 µM
TGI [6]: > 100 µM
GI50 [7]: 28.4 µM and 3.7 µM
TGI [7]: > 100 µM
TGI [8]: > 100 µM
TGI [9]: 34.2 µM and > 100 µM
TGI [10]: > 100 µM
GI50 [11]: 76.3 µM and 29.9 µM
TGI [11]: > 100 µM
TGI [12]: 65.7 µM and 40.2 µM
TGI [13]: > 100 µM
TGI [15]: > 100 µM
TGI [16]: > 100 µM
TGI [17]: 92.4 µM and 47.1 µM
GI50 [18]: 44.9 µM and 19.2 µM
TGI [18]: > 100 µM and 46.3 µM
GI50 [19]: 33.2 µM and 12.5 µM
TGI [19]: > 100 µM and 49.2 µM
TGI [20]: > 100 µM and 99.3 µM
TGI [21]: > 100 µM
TGI [22]: > 100 µM
TGI [23]: 56.7 µM and > 56.5 µM
GI50 [24]: 18.6 µM and 7.03 µM
TGI [24]: 43.4 µM and 15.7 µM
TGI [25]: > 100 µM and 51.8 µM
TGI [26]: > 100 µM
GI50 [27]: 31.7 µM and 15.7 µM
TGI [27]: > 100 µM and 36.7 µM
TGI [28]: > 100 µM
GI50 [29]: 43.1 µM and 14 µM
TGI [29]: > 100 µM and 65.3 µM
TGI [30]: 66.2 µM and 53.5 µM
TGI [31]: 69.3 µM and 60.9 µM
TGI [32]: 67 µM
GI50 [33]: 36.9 µM and 13.4 µM
TGI [33]: > 100 µM and 31.3 µM
TGI [34]: > 100 µM
TGI [35]: > 100 µM and 53.2 µM
TGI [36]: 82.1 µM and > 100 µM
GI50 [37]: 48.4 µM and 7.53 µM
TGI [37]: > 100 µM and 22.3 µM
TGI [38]: 97.7 µM and > 51.3 µM
TGI [39]: > 100 µM
GI50 [40]: 46.8 µM and 21.9 µM
TGI [40]: > 100 µM
GI50 [41]: 38.3 µM and 16.1 µM
TGI [41]: > 100 µM
GI50 [42]: 45.1 µM and 5.56 µM
TGI [42]: > 100 µM and 34 µM
TGI [43]: > 100 µM
GI50 [44]: 13.2 µM and 6 µM
TGI [44]: 41 µM and 13.6 µM
GI50 [45]: 30.6 µM and 14.5 µM
TGI [45]: > 100 µM and 50.7 µM
TGI [46]: > 100 µM
GI50 [47]: 19.5 µM and 3.5 µM
TGI [47]: 61.1 µM and > 36.1 µM
TGI [48]: > 100 µM
TGI [49]: 46.7 µM and > 100 µM
GI50 [50]: 15.1 µM and > 32.7 µM
TGI [50]: 46.6 µM and > 81.2 µM
TGI [51]: > 100 µM
TGI [52]: > 100 µM
TGI [53]: > 100 µM
TGI [54]: > 100 µM
GI50 [55]: 45.1 µM and 13.6 µM
TGI [55]: > 100 µM and 32.6 µM
GI50 [56]: > 100 µM and 10.3 µM
TGI [56]: > 100 µM and 35.7 µM
GI50 [57]: 34.8 µM and 10.1 µM
TGI [57]: > 100 µM and 34.6 µM
GI50 [58]: 28.5 µM and 9.26 µM
TGI [58]: > 100 µM and 41.7 µM
TGI [59]: > 100 µM

Cc1cc(=O)n2nc(CSc3nnc(Sc4cc(O)ccc4O)s3)sc2n1
TGI [1]: 32.7 µM
TGI [2]: > 100 µM
TGI [3]: > 100 µM
TGI [4]: > 100 µM
TGI [5]: > 100 µM
TGI [6]: > 100 µM
TGI [7]: 30.9 µM
TGI [8]: > 100 µM
TGI [9]: > 100 µM
TGI [10]: > 100 µM
TGI [11]: > 100 µM
TGI [12]: 41.2 µM
TGI [13]: > 100 µM
TGI [14]: > 100 µM
TGI [15]: > 100 µM
TGI [16]: 73.6 µM
TGI [17]: 46.2 µM
TGI [18]: > 100 µM
TGI [19]: > 100 µM
TGI [20]: > 100 µM
TGI [21]: > 100 µM
TGI [22]: > 100 µM
TGI [23]: 48.6 µM
TGI [24]: 54.1 µM
TGI [25]: > 100 µM
TGI [26]: 32.8 µM
TGI [27]: > 100 µM
TGI [28]: > 100 µM
TGI [29]: > 100 µM
TGI [30]: > 100 µM
TGI [31]: > 100 µM
TGI [32]: > 100 µM
TGI [33]: > 100 µM
TGI [34]: > 100 µM
TGI [35]: > 100 µM
TGI [36]: > 100 µM
TGI [37]: > 100 µM
TGI [38]: 36.3 µM
TGI [39]: > 100 µM
TGI [40]: > 100 µM
TGI [41]: > 100 µM
TGI [42]: > 100 µM
TGI [43]: > 100 µM
TGI [44]: > 100 µM
TGI [45]: > 100 µM
TGI [46]: > 100 µM
TGI [47]: 59.5 µM
TGI [48]: > 100 µM
TGI [49]: > 100 µM
TGI [50]: 41.1 µM
TGI [51]: > 100 µM
TGI [52]: 44.5 µM
TGI [53]: > 100 µM
TGI [54]: > 100 µM
TGI [55]: > 100 µM
TGI [56]: > 100 µM
TGI [57]: > 100 µM
TGI [58]: 61.4 µM
TGI [59]: 97.4 µM
